The results in this text go back to patent publication US8865704B2, “Wnt pathway antagonists” (Siena Biotech S.p.A., priority 2009, dated 2014).

The subject of this assay is Wnt/β-catenin pathway. Put plainly: Wnt reporter assay (TCF-Luciferase, Firefly) in DBTRG-05MG cells. In kind it is cell-based. The note with it: Homo sapiens, 24 hours after compound addition. The procedure: TCF-Luciferase: Three copies of a 4×TCF responsive elements were cloned into the pcDNA3.1/Zeo(+) vector (Invitrogen) after deletion of the constitutive CMV promoter and the insertion of the Firefly Luciferase from Promega (phFL-TK) to measure the activity of the Wnt/β-catenin pathway. The resulting plasmid was sequenced for quality control.
Cells were grown in 20 μg/ml Zeocin and 20 μg/ml Zeocin plus 30 μg/ml Hygromicin respectively. The cells were plated at a density of 6500 cells/well in poly-D-lysine pre-treated 96 well-plates.
IC50 determination: 36 hours after plating cells were incubated with 8-points (60 μM-40 μM-20 μM-10 μM-5 μM-1.66 μM-0.55 μM-0.185 μM) dilutions compound (0.6% DMSO (v/v)). Each compound was tested in triplicate in single plate. Luciferase detection was done with Dual-Luciferase Reporter Assay System (Promega). 24 hours after compound addition, media was removed and 30 μl of 1× lysis buffer was added to each well for 30 minutes. To each well 45 μl of Dual-Glo Luciferase reagent (Promega) were added and after 1 second delay Luciferase was detected for 1 second using Mithras LB940 instrument. After Firefly luciferase quantification 45 μl of Dual Stop & Glo reagent (Promega) were added to each well and Firefly Renilla was detected using the same parameters described before.
Data were expressed as % of control for Firefly and Renilla luciferase independently; values were calculated using XLFit version 4.2, with a four parameters sigmoid function (XLFit model 205).
(In a reporter assay the amount or activity of a reporter protein is the signal.)

Turning to `O=C1CC(c2ccccc2)NC(=O)N1C[C@H]1CC[C@H](C(=O)N2CCN(c3ccccc3)CC2)CC1` (stereo partly shown) [Example 44], the concentration for half-maximal inhibition (IC50) (in general, the concentration that gives 50% inhibition) is 0.3 to 30 µM.

In turn, `O=C1Nc2ccccc2CN1C[C@H]1CC[C@H](C(=O)N2CCN(c3ccccc3)CC2)CC1` [Example 45] came in with an IC50 of 0.3 to 30 µM.

Regarding `CN1C(=O)N(C[C@H]2CC[C@H](C(=O)N3CCN(c4ccccc4)CC3)CC2)Cc2ccccc21` [Example 46], the IC50 was 0.3 to 30 µM. Compound `O=c1[nH]c2ccccc2c(=O)n1C[C@H]1CC[C@H](C(=O)Nc2ccc3ncsc3c2)CC1` [Example 49] displayed an IC50 of 0.3 to 30 µM. `CC(c1ccccc1)N1CCN(C(=O)C2CCC(Cn3c(=O)[nH]c4ccccc4c3=O)CC2)CC1` (stereo not shown) [Example 50]: the half-maximal inhibitory concentration (IC50) fell in the range of 0.3 to 30 µM.

For `CC(C)C(=O)N1CCN(C(=O)[C@H]2CC[C@H](Cn3c(=O)[nH]c4cccc(Cl)c4c3=O)CC2)CC1` [Example 51], the concentration for half-maximal inhibition (IC50) was in the range of 0.3 to 30 µM. For the compound `CC(=O)N1CCN(C(=O)[C@H]2CC[C@H](Cn3c(=O)c4ccccc4n(C)c3=O)CC2)CC1` [Example 52], the IC50 lay in the range of 0.3 to 30 µM.

The compound `COCC(=O)N1CCN(C(=O)[C@H]2CC[C@H](Cn3c(=O)c4ccccc4n(C)c3=O)CC2)CC1` [Example 53] registered a half-inhibitory concentration (IC50) of 0.3 to 30 µM. For `CC(C)C(=O)N1CCN(C(=O)[C@H]2CC[C@H](Cn3c(=O)[nH]c4cccc(F)c4c3=O)CC2)CC1` [Example 54], the concentration for half-maximal inhibition (IC50) lay in the range of 0.3 to 30 µM.

`COc1cccc2[nH]c(=O)n(C[C@H]3CC[C@H](C(=O)N4CCN(C(=O)C(C)C)CC4)CC3)c(=O)c12` [Example 55] came in with an IC50 of 0.3 to 30 µM.

On to `CC(C)C(=O)N1CCN(C(=O)[C@H]2CC[C@H](Cn3c(=O)n(C)c4ccccc43)CC2)CC1` [Example 61], for which the IC50 was 0.3 to 30 µM. Compound `COCC(=O)N1CCN(C(=O)[C@H]2CC[C@H](Cn3c(=O)[nH]c4ccc(Cl)cc4c3=O)CC2)CC1` [Example 62] showed an IC50 of 0.3 to 30 µM. Compound `O=C(C1CC1)N1CCN(C(=O)[C@H]2CC[C@H](Cn3c(=O)[nH]c4ccc(Cl)cc4c3=O)CC2)CC1` [Example 63] returned an IC50 of 0.3 to 30 µM. With `CC(C)Cn1c(=O)n(C[C@H]2CC[C@H](C(=O)N3CCN(C(=O)C4CC4)CC3)CC2)c(=O)c2ccccc21` [Example 64], the IC50 lay in the range of 0.3 to 30 µM.

Take `COc1ccc2[nH]c(=O)n(C[C@H]3CC[C@H](C(=O)N4CCN(C(=O)C5CCCC5)CC4)CC3)c(=O)c2c1` [Example 65]: the IC50 fell in the range of 0.3 to 30 µM.

For `CN1C(=O)N(C[C@H]2CC[C@H](C(=O)N3CCN(C(=O)C4CC4)CC3)CC2)Cc2ccccc21` [Example 67], the IC50 fell in the range of 0.3 to 30 µM.

The compound `CN1C(=O)N(C[C@H]2CC[C@H](C(=O)N3CCN(C(=O)C4CCCC4)CC3)CC2)Cc2ccccc21` [Example 68] had an IC50 of 0.3 to 30 µM. Next, `COCC(=O)N1CCN(C(=O)[C@H]2CC[C@H](CN3Cc4ccccc4N(C)C3=O)CC2)CC1` [Example 69]: 0.3 to 30 µM; `O=c1[nH]c2ccccc2c(=O)n1C[C@H]1CC[C@H](C(=O)Nc2cccc3cccnc23)CC1` [Example 70]: 0.3 to 30 µM. `O=C(C1CCCC1)N1CCN(C(=O)[C@H]2CC[C@H](CN3Cc4ccccc4NC3=O)CC2)CC1` [Example 72] yielded a concentration for half-maximal inhibition (IC50) of 0.3 to 30 µM. Consider `O=C(C1CC1)N1CCN(C(=O)[C@H]2CC[C@H](Cn3c(=O)c4ccccc4n(CC4CC4)c3=O)CC2)CC1` [Example 73], for which the half-inhibitory concentration (IC50) lay within 0.3 to 30 µM. In turn, `O=C(C1CC1)N1CCN(C(=O)[C@H]2CC[C@H](Cn3c(=O)[nH]c4ccccc43)CC2)CC1` [Example 74] showed an IC50 of 0.3 to 30 µM. Consider `COc1ccc2c(c1)c(=O)n(C[C@H]1CC[C@H](C(=O)N3CCN(C(=O)C4CCCC4)CC3)CC1)c(=O)n2C` [Example 76], for which the half-maximal inhibitory concentration (IC50) fell in the range of 0.3 to 30 µM. In turn, `Cn1c(=O)n(C[C@H]2CC[C@H](C(=O)N3CCN(C(=O)C4CCCO4)CC3)CC2)c(=O)c2ccccc21` (stereo partly shown) [Example 81] returned an IC50 of 0.3 to 30 µM. The result for `O=C(C1CC1)N1CCN(C(=O)[C@H]2CC[C@H](Cn3c(=O)[nH]c4ccc(F)cc4c3=O)CC2)CC1` [Example 82] reads 0.3 to 30 µM.

Compound `O=C(C1CC1)N1CCN(C(=O)[C@H]2CC[C@H](Cn3c(=O)c4ccccc4n(C(F)F)c3=O)CC2)CC1` [Example 83] came in with a half-inhibitory concentration (IC50) of 0.3 to 30 µM. With `COc1ccc2c(c1)c(=O)n(C[C@H]1CC[C@H](C(=O)N3CCN(C(=O)C4CC4)CC3)CC1)c(=O)n2CC1CC1` [Example 84], the IC50 fell in the range of 0.3 to 30 µM. `O=C(C1CC1)N1CCN(C(=O)[C@H]2CC[C@H](CN3Cc4cc(Cl)ccc4NC3=O)CC2)CC1` [Example 85] displayed a 50% inhibitory concentration (IC50) of 0.3 to 30 µM.

Compound `COc1ccc2[nH]c(=O)n(C[C@H]3CC[C@H](C(=O)N4CCN(C)C(=O)C4)CC3)c(=O)c2c1` [Example 86] registered a concentration for half-maximal inhibition (IC50) of 0.3 to 30 µM. `CCN1CCN(C(=O)[C@H]2CC[C@H](Cn3c(=O)[nH]c4ccc(OC)cc4c3=O)CC2)CC1=O` [Example 87] returned an IC50 of 0.3 to 30 µM. The result for `COCCN1CCN(C(=O)[C@H]2CC[C@H](Cn3c(=O)[nH]c4ccc(OC)cc4c3=O)CC2)CC1=O` [Example 88] reads 0.3 to 30 µM. Turning to `COc1ccc2[nH]c(=O)n(C[C@H]3CC[C@H](C(=O)N4CCOCC4)CC3)c(=O)c2c1` [Example 89], the IC50 is 0.3 to 30 µM. `COc1ccc2[nH]c(=O)n(C[C@H]3CC[C@H](C(=O)N4CCCOCC4)CC3)c(=O)c2c1` [Example 90] had an IC50 of 0.3 to 30 µM. As to `COc1ccc2[nH]c(=O)n(C[C@H]3CC[C@H](C(=O)N4CCN(c5cnccn5)CC4)CC3)c(=O)c2c1` [Example 91], the half-maximal inhibitory concentration (IC50) fell in the range of 0.3 to 30 µM. Regarding `CCN1CCN(C(=O)[C@H]2CC[C@H](Cn3c(=O)c4cc(OC)ccc4n(C)c3=O)CC2)CC1=O` [Example 93], the concentration for half-maximal inhibition (IC50) fell in the range of 0.3 to 30 µM.

In turn, `COCCN1CCN(C(=O)[C@H]2CC[C@H](Cn3c(=O)c4cc(OC)ccc4n(C)c3=O)CC2)CC1=O` [Example 94] showed an IC50 of 0.3 to 30 µM. In the case of `Cc1ccc2[nH]c(=O)n(C[C@H]3CC[C@H](C(=O)N4CCN(C(=O)C5CC5)CC4)CC3)c2c1` [Example 95], the half-inhibitory concentration (IC50) lay in the range of 0.3 to 30 µM. `COc1ccc2[nH]c(=O)n(C[C@H]3CC[C@H](C(=O)N4CCN(C(=O)C(C)(C)F)CC4)CC3)c(=O)c2c1` [Example 96] yielded an IC50 of 0.3 to 30 µM. `COc1ccc2[nH]c(=O)n(C[C@H]3CC[C@H](C(=O)N4CCN(C(=O)C5CC5(F)F)CC4)CC3)c(=O)c2c1` (stereo partly shown) [Example 97]: the IC50 fell in the range of 0.3 to 30 µM. In turn, `COc1ccc2[nH]c(=O)n(C[C@H]3CC[C@H](C(=O)N4CCN(c5ncccn5)CC4)CC3)c(=O)c2c1` [Example 98] gave an IC50 of 0.3 to 30 µM. Turning to `CCCC(C)C(=O)N1CCN(C(=O)[C@H]2CC[C@H](Cn3c(=O)[nH]c4ccc(OC)cc4c3=O)CC2)CC1` (stereo partly shown) [Example 100], the IC50 was in the range of 0.3 to 30 µM. As to `CCC(C)C(=O)N1CCN(C(=O)[C@H]2CC[C@H](Cn3c(=O)[nH]c4ccc(OC)cc4c3=O)CC2)CC1` (stereo partly shown) [Example 101], the half-inhibitory concentration (IC50) is 0.3 to 30 µM.

In the case of `COc1ccc2[nH]c(=O)n(C[C@H]3CC[C@H](C(=O)N4CCN(C(=O)c5ccno5)CC4)CC3)c(=O)c2c1` [Example 102], the IC50 was 0.3 to 30 µM. Next, `COc1ccc2[nH]c(=O)n(C[C@H]3CC[C@H](C(=O)N4CCN(C(=O)OC(C)C)CC4)CC3)c(=O)c2c1` [Example 103]: 0.3 to 30 µM.

In turn, `CCC(C)OC(=O)N1CCN(C(=O)[C@H]2CC[C@H](Cn3c(=O)[nH]c4ccc(OC)cc4c3=O)CC2)CC1` (stereo partly shown) [Example 104] had a 50% inhibitory concentration (IC50) of 0.3 to 30 µM. Regarding `COc1ccc2[nH]c(=O)n(C[C@H]3CC[C@H](C(=O)N4CCN(CC5CC5)C(=O)C4)CC3)c(=O)c2c1` [Example 105], the half-maximal inhibitory concentration (IC50) fell in the range of 0.3 to 30 µM.

For `COc1ccc2[nH]c(=O)n(C[C@H]3CC[C@H](C(=O)N4CCN(C(=O)C5CCC5)CC4)CC3)c(=O)c2c1` [Example 106], the IC50 lay in the range of 0.3 to 30 µM. The result for `CC(C)(F)C(=O)N1CCN(C(=O)[C@H]2CC[C@H](Cn3c(=O)[nH]c4ccccc4c3=O)CC2)CC1` [Example 107] reads 0.3 to 30 µM; that for `O=C(C1CC1(F)F)N1CCN(C(=O)[C@H]2CC[C@H](Cn3c(=O)[nH]c4ccccc4c3=O)CC2)CC1` (stereo partly shown) [Example 108], 0.3 to 30 µM; that for `COc1ccc2[nH]c(=O)n(C[C@H]3CC[C@H](C(=O)N4CCN(C(=O)[C@@H]5CCCO5)CC4)CC3)c(=O)c2c1` [Example 110], 0.3 to 30 µM. In the case of `O=C(C1CC1)N1CCN(C(=O)[C@H]2CC[C@H](Cn3c(=O)[nH]c4cc(Cl)ccc43)CC2)CC1` [Example 111], the IC50 fell in the range of 0.3 to 30 µM. In the case of `O=C(C1CC1)N1CCN(C(=O)[C@H]2CC[C@H](Cn3c(=O)[nH]c4cc(C(F)(F)F)ccc43)CC2)CC1` [Example 112], the IC50 was 0.3 to 30 µM.

For the compound `COc1ccc2[nH]c(=O)n(C[C@H]3CC[C@H](C(=O)Nc4ccncc4)CC3)c(=O)c2c1` [Example 113], the IC50 was in the range of 0.3 to 30 µM.

`COc1ccc2[nH]c(=O)n(C[C@H]3CC[C@H](C(=O)Nc4ccc5oc(C)nc5c4)CC3)c(=O)c2c1` [Example 114] gave a half-inhibitory concentration (IC50) of 0.3 to 30 µM.

Consider `COc1ccc2[nH]c(=O)n(C[C@H]3CC[C@H](C(=O)N4CCN(C(=O)c5cncn5C)CC4)CC3)c(=O)c2c1` [Example 115], for which the IC50 was in the range of 0.3 to 30 µM. As to `COc1ccc2[nH]c(=O)n(C[C@H]3CC[C@H](C(=O)N4CCN(C(=O)c5ccncn5)CC4)CC3)c(=O)c2c1` [Example 117], the IC50 fell in the range of 0.3 to 30 µM.

On to `COc1ccccc1NC(=O)[C@H]1CC[C@H](CN2CCc3ccccc3NC2=O)CC1` [Example 118], for which the IC50 was 0.3 to 30 µM. The result for `COc1ccccc1NC(=O)[C@H]1CC[C@H](CN2C(=O)Cc3ccccc3N(C)C2=O)CC1` [Example 119] reads 0.3 to 30 µM.
